The source of these data is US6905706B2, “Medicinal herbal extract carpediol for treating depression” (Swedish Herbal Institute, priority 2002, dated 2005).

Marks after values point to notes of the source that are not given here.

One data set has as its system Male Wistar rats. Description: Behavioral despair "forced swimming" test. The format is in vivo, rat. The settings on record: 30 min pretreatment; for Duration of immobility: mean ± SEM. The source says:
Behavioral despair was proposed as a model to test for antidepressant activity by Porsolt et al (25-27). […] This behavior reflects a state of despair which can be reduced by several agents which are therapeutically effective in human depression.
Procedure—The procedure described by Porsolt et al. (25-27) was used with minor modifications described by Chatterjee et al. (28-29). Male Wistar rats weighing 170-200 g were used. They were brought to the laboratory at least one day before the experiment and were housed separately in cages with free access to food and water. Naive rats were individually forced to swim inside a vertical glass cylinder (height: 50 cm; diameter: 25 cm, containing 20 cm of water maintained at 25° C.). […] After 2-3 minutes, activity began to subside and to be interspersed with phases of immobility or floating of increasing length. After 5-6 minutes, immobility reached a plateau where the rats remained immobile for approximately 80% of the time. After 15 minutes in the water, the rats were removed and allowed to dry in a heated enclosure (32° C.) before being returned to their home cages. Total immobility time, i.e., the time of complete cessation of swimming with the head floating just above water level, was quantified 48 hours later after re-exposing them to the water for 5 minutes. They were placed in the cylinder 48 hours later and the total duration of immobility was measured during a 5 minute test. […] An animal was judged to be immobile whenever it remained floating passively in the water in a slightly hunched but upright position, its nose just above the surface. Test samples (Hypericum extracts: HP, HPSE, Jarsin 300, HRFC, Crassulaceae special extracts, Carpediol) and standard drugs (amitriptyline and Imipramine) were administered 3 times immediately after pre-exposure, and 24 and one hour prior to testing (re-exposure) as described in Chatterjee et al., Antidepressant activity of Hypericum perforatum and Hyperforin: the neglected possibility. Pharmacopsychiatry. 31 (Suppl 1):7-15 1998), which is incorporated by reference herein in its entirety.
Evaluation—Duration of immobility was measured in controls and animals treated with various doses of a test drug or standard. Antidepressant drugs, but also stimulants like amphetamine and caffeine, reduced duration of immobility. Dose-responses were evaluated.
Two series of experiments were performed with the following test drugs:
Series A: HP, HPSE, HRFC, CRE, Jarsin, amitriptyline.
Series B: CRE-A, CRE-B, CRE-C, CRE-D, ASFC, imipramine.
They were group-housed, four per cage at ambient temperature of 20±2° and 40-50% relative humidity, with a 12 hour dark/12 hour light cycle (lighting on time 8 a.m.). The animals had free access to pellet chow (Comby) and drinking water.
The extracts were administered once daily for 3 consecutive days. Experiments were performed on day 3, 1 hour after the last drug or vehicle application. Amitriptyline was used as the standard antidepressant, and was administered in a single dose of 3 mg/kg (p.o.) with a pretreatment time of 30 min.
They were administered in a volume of 5 ml/kg (p.o.). The extracts were administered once daily for 3 consecutive days. Experiments were performed on day 3, 1 hour after the last drug or vehicle application. Imipramine-HCl diluted with water to concentration of 6 mg/ml, positive control was used as the standard antidepressant. Imipramine was administered in a single dose of 30 mg/kg (p.o.) with a pretreatment time of 30 minutes. All behavioral studies were performed between 1-3 p.m. and recorded by a video camera. The tapes were evaluated afterwards by an observer who was not informed about the type of treatment each animal had received.
Statistics—Statistical analysis of the duration of immobilization time of rats in swimming test was performed by unpaired two tailed Students t-test with significance 95% confidence interval. […]

For data set [1] the following is noted: simultaneous application; cited from earlier work.
[2] abbreviates: Series A, 3 mg/kg p.o. single dose.
Where [3] appears, read: Series B, 30 mg/kg p.o. single dose.

On to `CN(C)CCC=C1c2ccccc2CCc2ccccc21` [Amitriptyline], for which, in the data set with Male Wistar rats (setting [2]), the “Percent (duration of immobility vs vehicle)” value was 66.3%; the “Percent decrease (duration of immobility)” value is on record as 43.7%; the Duration of immobility is recorded as 117.8 ± 33.32, n = 8 seconds.

For `CN(C)CCCN1c2ccccc2CCc2ccccc21` [Imipramine], in the data set with Male Wistar rats (setting [3]), the “Percent (duration of immobility vs vehicle)” value was 34.9*** Percent, the “Percent decrease (duration of immobility)” value is given as 65.1*** Percent and the Duration of immobility is given as 76.0 ± 21.1 n = 6 Seconds.

Regarding `CN/C(=N/CCSCc1nc[nH]c1C)NC#N` [cimetidine], the “Effect on the metabolism of theophylline (in words)” value in data set [1] is given as “inhibit”.

Take `CC(C)NCC(O)COc1cccc2ccccc12` (centres unmarked) [propranolol]: the “Effect on the metabolism of theophylline (in words)” value in data set [1] was “inhibit”.
